Measured values reported in patent US8946436B2, “Oxazolidinone compounds and their uses in preparation of antibiotics” (Sichuan Gooddoctor Pharmaceutical Group Co., Ltd., priority 2011, dated 2015).
Converted amounts (≈) assume the structure as drawn.

Columns and labels:
Assay type in all cases: cell-based
HEK-293 = test: Cytotoxicity experiment (MTT), HEK-293; details: HEK-293 normal cells
Description: (1) Inoculating cells: Experimental cells in the growth of logarithmic phase were collected and suspended. The cell concentration of the suspension was adjusted so that they could be inoculated into the wells of 96-well micro plate at a density between 10^3-10^4 cells per well (200 μl per well). (2) Culturing cells: The cells were cultured at normal conditions for 3 days and then exposed to 50 uM compounds for test. (3) Coloring reaction: At 24 h, 48 h and 72 h after the cells being exposed to the compounds for test, 200 μl culture medium containing 20 μl MTT solution (5 mg/ml) was added into each well, and the well was further incubated at 37° C. for 2 hours to terminate the incubation. After the incubation, the supernatants were removed from the wells. In the event there were suspended cells in the wells, centrifugation should be performed before removal of supernatant from the wells. After the removal, 150 μl DMSO was added to each well and mixed thoroughly by agitation for 10 mins to fully dissolve crystals. (4) Ascertainment of colorimetry: The absorbance value at 490 nm of each well was determined by Enzyme-linked immunosorbent Monitor. The growth curve of the experimental cells was plotted by taking time as x-coordinate and absorbance value as y-coordinate. In addition, an inhibition ratio could be calculated in accordance with the following formula: Inhibition ratio=(absorbance value of control group-absorbance value of administering group)/absorbance value of control group×100%.

Streptococcus agalactiae = test: MIC against clinically isolated strains, Streptococcus agalactiae; details: Streptococcus agalactiae (17 strains)
From the text: (§1) Standard strains, including Staphylococcus aureus ATCC29213, S. pneumoniae ATCC49619, E. faecalis ATCC29212, are all available from the American Type Culture Collection.
(§2) Clinically isolated strains: There are total 120 clinical strains of gram-positive bacterium including: 37 strains of Staphylococcus aureus (consisting of 14 strains of methicillin sensitive Staphylococcus aureus MSSA and 23 strains of methicillin resistant Staphylococcus aureus MRSA); 27 strains of Streptococcus pneumoniae (consisting of 13 strains of penicillin sensitive Streptococcus pneumoniae PSSP and 14 strains of penicillin insensitive or resistant Streptococcus pneumoniae PISP+PRSP); 15 strains of Streptococcus pyogenes; 17 strains of Streptococcus agalactiae; 24 stains of Enterococcus faecium (consisting of 12 strains of vancomycin sensitive Enterococcus faecium and 12 strains of vancomycin resistant Enterococcus faecium).
(§3) (2) Tested compounds: Compound 13f was prepared by the methods above, with potency of over 98%; Linezolid was purchased from Pfizer, with potency of 100%.
(§4) Staphylococcus and Enterococcus faecium were incubated in Mueller-Hinton agar medium (MHA medium) at 35° C. for 16-20 h; S. pneumoniae was incubated in Cation-Adjusted Mueller-Hinton Broth medium (CAMHB medium) supplemented with 2.5-5.5% (v/v) lysed horse blood (LHB) at 35° C. for 20-24 h; and Streptococcus were incubated in sheep blood-containing medium (prepared by addition of 5% defibrinated sheep blood into MHA media) at 35° C. for 20-24 h in 5% CO2 environment (CO2 incubator). Before test of the compound activity, each stock of the bacteria strains was activated and colonized in the following manner: the stock was transferred and cultured in a liquid culture medium, the culture liquid was smeared onto an agar plate with an inoculating loop to obtain bacterial colonies on the plate after incubation, and then a colony of the bacteria was chose to be suspended into the liquid culture medium for performing the test of compound activity. As a result, fresh bacteria cells were applied to the test. The standard strains were used as sensitive bacterium to control the quality of the experiments, and a plate or tube containing no antibacterial compounds is used as a blank control for the growth of test strains.
(§5) The minimal inhibitory concentration (MIC) of the test compounds on the strains of Streptococcus pneumoniae was determined by a standard broth macrodilution method, while the MIC of the test compounds on the other bacteria stains was determined by standard agar double dilution methods. The concentration of the test compounds was in the range of 32 mg/L-0.016 mg/L. The bacterial suspensions to be tested were inoculated by a multipoint inoculator, and the inoculation amount at each point is 10^4 CFU. The MIC of the test compound to each strain of the bacteria was determined.

[1] = system: Enterococcus faecium-sensitive vancomycin; test: MIC against clinically isolated strains, vancomycin sensitive Enterococcus faecium; details: Enterococcus faecium-sensitive vancomycin (12 strains)
From the text: as §1, §2, §3, §4, §5

Row | Structure (SMILES) | cytotoxicity at 50 µM (HEK-293; Homo sapiens, HEK293, 48 h, read-out: Inhibition ratio) | MICmode (Streptococcus agalactiae) | MICrange (Streptococcus agalactiae) | MICmode [1] | MICrange [1] | Inhibition ratio (HEK-293; 50 uM, 48 h) | MIC50 (Streptococcus agalactiae) | MIC90 (Streptococcus agalactiae) | MIC50 [1] | MIC90 [1]
1 | CC(=O)NC[C@H]1CN(c2ccc(-n3cc(-c4ccccn4)cn3)c(F)c2)C(=O)O1 [Compound 13f, (S)-N-((3-(3-fluoro-4-(4-(pyridin-2-yl)-1H-pyrazol-1-yl)phenyl)-2-oxooxazolidin-5-yl)methyl)acetamide] | 2.7% | 1 µg/L | 0.5 to 1 µg/L | 1 µg/L | 1 to 2 µg/L | – | – | – | – | –
2 | CC(=O)NC[C@H]1CN(c2ccc(N3CCOCC3)c(F)c2)C(=O)O1 [Linezolid, reference compound] | – | 1 µg/L | 0.5 to 1 µg/L | 1 µg/L | 1 to 2 µg/L | >50% | 1 ng/mL (≈ 2.96 nM) | 1 ng/mL (≈ 2.96 nM) | 1 ng/mL (≈ 2.96 nM) | 1 ng/mL (≈ 2.96 nM)
